We go through one compound from ChEMBL document CHEMBL1155268, “Synthesis of amyloid beta peptide 1-42 (E22Delta) click peptide: pH-triggered in situ production of its native form” (Bioorg Med Chem, 2009).

The data set in a line: Solubility in water by HPLC. In kind it is physicochemical.

≈ marks a conversion by molar mass, not a printed value.

Turning to `CC[C@H](C)[C@H](NC(=O)[C@H](C)NC(=O)CNC(=O)[C@H](CCCCN)NC(=O)[C@H](CC(N)=O)NC(=O)[C@H](CO)NC(=O)CNC(=O)[C@@H](NC(=O)[C@H](CC(=O)O)NC(=O)[C@H](C)NC(=O)[C@H](Cc1ccccc1)NC(=O)[C@H](Cc1ccccc1)NC(=O)[C@@H](NC(=O)[C@H](CC(C)C)NC(=O)[C@H](CCCCN)NC(=O)[C@H](CCC(N)=O)NC(=O)[C@H](Cc1cnc[nH]1)NC(=O)[C@H](Cc1cnc[nH]1)NC(=O)[C@@H](NC(=O)[C@H](CCC(=O)O)NC(=O)[C@H](Cc1ccc(O)cc1)NC(=O)CNC(=O)[C@H](CO)NC(=O)[C@H](CC(=O)O)NC(=O)[C@H](Cc1cnc[nH]1)NC(=O)[C@H](CCCNC(=N)N)NC(=O)[C@H](Cc1ccccc1)NC(=O)[C@H](CCC(=O)O)NC(=O)[C@H](C)NC(=O)[C@@H](N)CC(=O)O)C(C)C)C(C)C)C(C)C)C(=O)N[C@H](C(=O)NCC(=O)N[C@@H](CC(C)C)C(=O)N[C@@H](CCSC)C(=O)N[C@H](C(=O)NCC(=O)NCC(=O)N[C@H](C(=O)N[C@H](C(=O)N[C@H](C(=O)N[C@@H](C)C(=O)O)[C@@H](C)CC)C(C)C)C(C)C)C(C)C)[C@@H](C)CC`, the solubility – broadly, the concentration that dissolves in the medium under given conditions – was determined as 1500 µg/mL (≈ 342 µM).
